# Data published in patent US8188059B2, “Compounds and methods for modulating expression of GCGR” (Isis Pharmaceuticals, Inc., priority 2006, dated 2012).
# Strand notation (5' to 3'): a small letter for the sugar, then the base; units joined by * are phosphorothioate-linked, units joined directly phosphodiester-linked; [ ] holds rarer units or linkages, { } end groups; capitals alone tell only the bases. e = 2'-O-(2-methoxyethyl) (MOE); [5mC] = 5-methylcytosine; d = 2'-deoxy (DNA)
# Test: Total and full-length antisense compound concentrations in liver and kidney (Example 4, Table 42)
# Format: in vivo, mouse
# Conditions: C57/BL6 mice; single i.p. dose; 48 h; dose not given
# Protocol: Eight-week old male C57/BL6 mice (Jackson Laboratory, Bar Harbor, Me.) were administered a single dose of GCGR oligonucleotide by intraperitoneal injection at a concentration of […]. Each dose group consisted of four animals. Shown in Table 31 are the sequences, motifs and conjugates of the GCGR antisense compounds used in this study. Bolded residues indicate 2′-O-methoxyethyl (2′-MOE) moieties. All compounds comprise phosphorothioate internucleoside linkages throughout and each cytosine is replaced with 5-methylcytosine. ISIS 386626, ISIS 386627 and ISIS 386628 further comprise a C16 conjugate group attached to the 2′-O position of the sugar via a diamide linkage (2′-OCH2C(═O)N(H)(CH2)4N(H)C(═O)—(CH2)15CH3). GCGR antisense compounds target published GCGR sequences, including Genbank® Accession No. BC031885.1 (SEQ ID NO: 7).
# Mice were sacrificed 48 hours following injection to determine serum transaminase levels (Table 32); liver, white adipose tissue (WAT), spleen and kidney weight (Table 33); cholesterol, triglyceride and glucose levels (Table 34); GCGR mRNA levels (Tables 35-41); and full-length and total oligonucleotide concentration in liver and kidney (Table 42). Endpoints were assessed using methods described herein and well known to those of ordinary skill in the art. Data is included from a pre-treatment bleed (Pre-Bleed) and post-treatment bleed (Post-Bleed).
# Treatment with the 2-10-2 MOE gapmers led to a significant dose-dependent decrease in GCGR mRNA expression. […] To determine whether the observed increase in efficiency with the short antisense compounds is due to an increase in antisense compound accumulation, full-length and total antisense compound concentration in the liver and kidney were determined.
substance,measurement,value
148364 (antisense eT*eG*e[5mC]*eA*e[5mC]*dT*dT*dT*dG*dT*dG*dG*dT*dA*d[5mC]*e[5mC]*eA*eA*eG*eG) [compound 148364],"Full-length antisense compound concentration, Kidney",58 µg/g
same,"Full-length antisense compound concentration, Liver",46 µg/g
same,"Total antisense compound concentration, Kidney",90 µg/g
same,"Total antisense compound concentration, Liver",54 µg/g
